From patent publication US11559538B2, “Substituted 1,2-oxaborolan-2-ols as PDE4 inhibitors” (Pfizer Inc., priority 2018, dated 2023)
Where two headings read alike, the source gives them in different places.

How the values were obtained:
IL-4 = assay: Cytokine assay: IL-4 release from PHA-L stimulated human PBMCs; type: cell-based; settings: read-out: IL4 IC50
Procedure: (§1) Cytokine inhibitory activity is determined by measuring the effect of test agent on the release of the cytokines IL-4, IL-13 and IFNγ from human peripheral blood mononuclear cells (PBMCs) stimulated with the T-cell mitogen phytohemagglutinin-L (PHA-L). At the time of assay, human PBMCs (Astarte Biologics) are removed from cryopreservation, thawed quickly at 37° C., diluted in assay medium (RPMI-Gibco 1640 medium, 10% heat inactivated fetal bovine serum (HIFBS), 2 mM glutamine and 10 mM HEPES pH 7.4) and then centrifuged at 250×g for 5 minutes. The resulting cell pellet is re-suspended in assay medium to a concentration of approximately 5×10^6 cells/mL and 50 μL of this cell suspension (approximately 250,000 cells) is added to each well of a 384-well cell culture microtiter plate (Perkin Elmer). Varying concentrations of test compound are then diluted in assay medium and added to the assay plate wells in a volume of 25 μL. After −10 minutes at room temperature (21° C.) the cells are stimulated by the addition of 25 μL of PHA-L (14 μg/mL; Millipore) and the assay plate is placed in an incubator at 37° C. in a humidified environment in 5% carbon dioxide. The final assay conditions are approximately 250,000 human PBMCs per well in assay medium containing 3.5 μg/mL PHA-L and the indicated final concentration of test compound (approximately 10 μM to […] by 4-fold dilution). The final concentration of DMSO in the assay is approximately 0.25%. After 48 hours, the assay plate is removed from the incubator and centrifuged at 250×g for 5 minutes. A portion of the resulting cell supernatant is then used to determine the amount of IL-4, IL-13 and IFNγ in each well. Cytokine measurements are made using human IL-4, IL-13 or IFNγ HTRF assay kits (CisBio) following the manufacturer's assay protocol. The concentrations and resulting effect values for tested compounds are plotted and the concentration of compound required for 50% effect (IC50) is determined with a four-parameter logistic dose response equation (E-WorkBook, ID Business Solutions Ltd.) and shown in Table 17.

IFNγ = assay: Cytokine assay: IFNγ release from PHA-L stimulated human PBMCs; type: cell-based
Procedure: as §1

[1] = molecular target: PDE4B (aa 152-484, Uniprot ID Q07343) (Homo sapiens (Human), UniProt Q07343); assay: PDE4 SPA assay (scintillation proximity assay); type: biochemical; settings: read-out: PDE4B2 IC50
Procedure: Phosphodiesterase (PDE) activity is determined by measuring the effect of a test agent on the activity of the PDE4B enzyme in a scintillation proximity assay (SPA). At the time of assay, approximately 30 μL of PDE4B (aa 152-484, Uniprot ID Q07343) in 50 mM Tris pH 7.5, 1.3 mM MgC2, 0.004% Brij 35 is added to a 384 well white clear bottom polystyrene plate (Corning) containing 1 μL of varying concentrations of test compound. After −10 minutes at room temperature (RT; 21° C.), the assay is initiated by the addition of 20 μL of a mixture of ^3H-labeled (adenosine 3′, 5′-cyclic phosphate, ammonium salt, [2,8-^3H]; Perkin Elmer) and unlabeled cAMP. The final assay conditions are approximately 81.6 pM PDE4B in 50 mM Tris pH 7.5, 1.3 mM MgCl2, 0.004% Brij 35, 1 μM ^3H-labeled/unlabeled cAMP (1425 dpm/pmol) and the indicated final concentration of test compound (approximately 10 μM to […] by 4-fold dilution). The final concentration of DMSO in the assay is approximately 2.0%. After 30 minutes at RT, the assay is terminated by the addition of approximately 20 μL of an aqueous solution of PDE YSI SPA beads (8 mg/mL in water; Perkin Elmer). The beads are allowed to settle for at least 2 hours and the plate is then counted on a MicroBeta2 (Perkin Elmer). The concentrations and resulting effect values for the tested compound are plotted and the concentration of compound required for 50% effect (IC50) is determined with a four-parameter logistic dose response equation (E-WorkBook, ID Business Solutions Ltd.) and shown in Table 17.

IL-13 = assay: Cytokine assay: IL-13 release from PHA-L stimulated human PBMCs; type: cell-based; settings: read-out: IL13 IC50
Procedure: as §1

PDE4B (aa 152-484, Uniprot ID Q07343), sequence (Q07343 324-656): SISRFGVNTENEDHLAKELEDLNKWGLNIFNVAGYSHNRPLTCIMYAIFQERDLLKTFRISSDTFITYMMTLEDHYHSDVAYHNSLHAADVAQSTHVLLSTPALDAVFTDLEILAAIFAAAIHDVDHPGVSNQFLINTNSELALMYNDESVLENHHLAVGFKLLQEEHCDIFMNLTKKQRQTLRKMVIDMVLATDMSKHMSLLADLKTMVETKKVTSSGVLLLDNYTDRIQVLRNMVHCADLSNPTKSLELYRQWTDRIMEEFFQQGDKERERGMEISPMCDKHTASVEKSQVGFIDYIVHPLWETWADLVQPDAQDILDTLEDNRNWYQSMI

Row | SMILES | IC50 (IL-4; Homo sapiens, PBMC) [nM] | IC50 (IFNγ; Homo sapiens, PBMC) [nM] | IC50 [1] [nM] | IC50 (IL-13; Homo sapiens, PBMC) [nM] | IC50 (IL-4) [nM] | IC50 (IFNγ) [nM] | IC50 (IL-13) [nM]
1 | CCCOc1cc(-c2cccc(C3COB(O)C3)c2)ccc1OC (single isomer, unassigned) [Example 89, 4-(4′-methoxy-3′-propoxy-[1,1′-biphenyl]-3-yl)-1,2-oxaborolan-2-ol] | – | – | 1.21 | – | 26.4 | 3.5 | 449
2 | COc1cc(-c2ccc(OC)c(OC3CCCC3)c2)nc(C2COB(O)C2)n1 (single isomer, unassigned; enantiomer 2) [Example 176, 4-(4-(3-(cyclopentyloxy)-4-methoxyphenyl)-6-methoxypyrimidin-2-yl)-1,2-oxaborolan-2-ol, enantiomer 2] | 6.51 | 2.98 | 5.51 | 1140 | – | – | –
3 | COc1ccc(-c2cccc(C3COB(O)C3)c2)cc1OC(C)C (stereo not shown) [Example 75, 4-(3′-isopropoxy-4′-methoxy-[1,1′-biphenyl]-3-yl)-1,2-oxaborolan-2-ol] | 125 | 5.98 | 4.52 | 395 | – | – | –
4 | CCCOc1cc(-c2nc(OC)cc(C3COB(O)C3)n2)ccc1OC (single isomer, unassigned; enantiomer 2) [Example 225, (−) 4-(6-methoxy-2-(4-methoxy-3-propoxphenyl)pyrimidin-4-yl)-1,2-oxaborolan-2-ol, enantiomer 2] | 21.2 | 4.36 | 3.79 | 2380 | – | – | –
5 | COc1ccc(-c2nc(C3COB(O)C3)cs2)cc1OC (stereo not shown) [Example 159, 4-(2-(3,4-dimethoxyphenyl)thiazol-4-yl)-1,2-oxaborolan-2-ol] | 468 | 25.1 | 15.1 | 931 | – | – | –
6 | CCOc1cc(-c2cncc(C3COB(O)C3)c2C(F)F)ccc1OC (single isomer, unassigned) [Example 140, 4-(4-(difluoromethyl)-5-(3-ethoxy-4-methoxyphenyl)pyridin-3-yl)-1,2-oxaborolan-2-ol] | – | – | 2.7 | – | 3.47 | 3.2 | 3450
7 | CCOc1cc(-c2nc(C3COB(O)C3)cs2)c(F)cc1OC (single isomer, unassigned) [Example 92, 4-(2-(5-ethoxy-2-fluoro-4-methoxyphenyl)thiazol-4-yl)-1,2-oxaborolan-2-ol] | 3.36 | 2.7 | 1.79 | 947 | – | – | –
8 | COc1ccc(-c2cc(C3=CB(O)OC3)ccn2)cc1OC [Example 227, 4-(2-(3,4-dimethoxphenyl)pyridin-4-yl)-1,2-oxaborol-2(5H)-ol] | 285 | 9.16 | 7.94 | 2540 | – | – | –
9 | CCOc1cc(-c2cccc(C3COB(O)C3)n2)ccc1SC (single isomer, unassigned; enantiomer 1) [Example 204, 4-(6-(3-ethoxy-4-(methylthio)phenyl)pyridin-2-yl)-1,2-oxaborolan-2-ol, enantiomer 1] | 22.7 | 21.8 | 6.07 | 1710 | – | – | –
10 | COc1ccc(-c2cncc(C3COB(O)C3)c2)cc1OC1CCSCC1 (stereo not shown) [Example 169, 4-(5-(4-methoxy-3-((tetrahydro-2H-thiopyran-4-yl)oxy)phenyl)pyridin-3-yl)-1,2-oxaborolan-2-ol] | 33 | 5.84 | 2.85 | 2020 | – | – | –
11 | CCOc1cc(-c2cncc(C3COB(O)C3)c2C)ccc1OC (single isomer, unassigned) [Example 21, 4-(5-(3-ethoxy-4-methoxyphenyl)-4-methylpyridin-3-yl)-1,2-oxaborolan-2-ol] | – | – | 0.64 | – | 0.84 | 1.35 | 159
12 | COc1ccc(-c2cccc(C3COB(O)C3)c2)cc1OC1CCC1 (stereo not shown) [Example 184, 4-(3′-cyclobutoxy-4′-methoxy-[1,1′-biphenyl]-3-yl)-1,2-oxaborolan-2-ol] | 79.2 | 4.48 | 0.8 | 1400 | – | – | –
13 | COc1ccc(-c2cncc(C3COB(O)C3)c2)cc1OC1CC1 (stereo not shown) [Example 36, 4-(5-(3-cyclopropoxy-4-methoxyphenyl)pyridin-3-yl)-1,2-oxaborolan-2-ol] | 5.25 | 1.27 | 0.98 | 476 | – | – | –

Further lines, results first:

Row | IC50 (IL-4; Homo sapiens, PBMC) [nM] | IC50 (IFNγ; Homo sapiens, PBMC) [nM] | IC50 [1] [nM] | IC50 (IL-13; Homo sapiens, PBMC) [nM] | IC50 (IL-4) [nM] | IC50 (IFNγ) [nM] | IC50 (IL-13) [nM] | SMILES
14 | 1.25 | 1.72 | 1.98 | 2950 | – | – | – | CCCOc1nc(-c2cc(C3COB(O)C3)cnc2C)ccc1OC (single isomer, unassigned; enantiomer 1) [Example 231, (−) 4-(5-methoxy-2′-methyl-6-propoxy-[2,3′-bipyridin]-5′-yl)-1,2-oxaborolan-2-ol, enantiomer 1]
15 | – | 1.62 | 2.36 | – | 54.4 | – | 858 | CCCOc1c(OC)ccc(-c2cncc(C3COB(O)C3)c2)c1F (stereo not shown) [Example 81, 4-(5-(2-fluoro-4-methoxy-3-propoxphenyl)pyridin-3-yl)-1,2-oxaborolan-2-ol]
16 | 2.56 | 1.68 | 2.96 | 1480 | – | – | – | CCOc1cc(-c2cc([C@@H]3COB(O)C3)cnc2C)ccc1OC (single isomer, unassigned) [Example 19]
17 | 41.1 | 7.87 | 5.58 | 986 | – | – | – | CCOc1c(OC)cc(F)c(-c2cncc(C3COB(O)C3)c2)c1F (single isomer, unassigned; enantiomer 1) [Example 164, (−) 4-(5-(3-ethoxy-2,6-difluoro-4-methoxyphenyl)pyridin-3-yl)-1,2-oxaborolan-2-ol, enantiomer 1]
18 | – | – | 1.41 | 588 | 79.9 | 8.1 | – | CCCOc1cc(-c2cncc(C3COB(O)C3)c2)ccc1SC (stereo not shown) [Example 112, 4-(5-(4-(methylthio)-3-propoxyphenyl)pyridin-3-yl)-1,2-oxaborolan-2-ol]
19 | – | – | 2.21 | – | 47.4 | 9.35 | 2430 | COc1ccc(-c2cncc(C3COB(O)C3)c2)cc1OC (single isomer, unassigned; enantiomer 2) [Example 221, 4-(5-(3,4-dimethoxyphenyl)pyridin-3-yl)-1,2-oxaborolan-2-ol, enantiomer 2]
20 | 10.9 | 2.71 | 3.04 | 768 | – | – | – | CCOc1c(OC)ccc(-c2cncc(C3COB(O)C3)c2)c1F (single isomer, unassigned) [Example 74, 4-(5-(3-ethoxy-2-fluoro-4-methoxyphenyl)pyridin-3-yl)-1,2-oxaborolan-2-ol]
21 | 3.73 | 1.64 | 1.27 | 337 | – | – | – | CCCOc1cc(-c2cncc(C3COB(O)C3)c2)cnc1OC (stereo not shown) [Example 51, 4-(6′-methoxy-5′-propoxy-[3,3′-bipyridin]-5-yl)-1,2-oxaborolan-2-ol]
22 | 3.01 | 2.95 | 0.97 | 496 | – | – | – | CCCOc1cc(-c2cncc(C3COB(O)C3)c2)c(F)cc1OC (single isomer, unassigned) [Example 111, 4-(5-(2-fluoro-4-methoxy-5-propoxyphenyl)pyridin-3-yl)-1,2-oxaborolan-2-ol]
